Data: patent US12077503B2, “Substituted cyclic amides and their use as herbicides” (FMC CORPORATION, priority 2015, dated 2024)

Legend:
Format in all cases: in vivo
[1] = system: barnyardgrass (Echinochloa crus-galli); experiment: Test G Pre-Emergence Protocol; details: Echinochloa crus-galli, pre-emergence, 312 h, evaluated after 13 days; for pest or weed control at 15.625 g/ha: 15.625 g ai/ha; for pest or weed control at 15.625 g/ha / pest or weed control at 250 g/ha: read-out: Barnyardgrass damage rating (100=total damage to plant; 0=no damage to plant); for pest or weed control at 62.5 g/ha: 62.5 g ai/ha, 100=total damage to plant, 0=no damage to plant, read-out: Barnyardgrass damage rating; for pest or weed control at 250 g/ha: 250 g ai/ha
How it was run: (§1)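 Under a 24/16° C day/night regime with 14 h light and 65% humidity, sown pots were sprayed after one day with compound (15.625, 62.5 or 250 g/ha; 50:50 acetone/water, 0.5% Tween 20). Damage was assessed visually 13 days later, 0 to 100.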

[2] = system: corn (Zea mays); experiment: Test G Pre-Emergence Protocol; details: Zea mays, pre-emergence, 312 h, evaluated after 13 days; for plant injury at 15.625 g/ha: 15.625 g ai/ha; for plant injury at 15.625 g/ha / plant injury at 250 g/ha: read-out: Corn damage rating (100=total damage to plant; 0=no damage to plant); for plant injury at 62.5 g/ha: 62.5 g ai/ha, 100=total damage to plant, 0=no damage to plant, read-out: Corn damage rating; for plant injury at 250 g/ha: 250 g ai/ha
How it was run: as §1

[3] = system: giant foxtail (Setaria faberi); experiment: Test G Pre-Emergence Protocol; details: Setaria faberi, pre-emergence, 312 h, evaluated after 13 days; for pest or weed control at 15.625 g/ha: 15.625 g ai/ha; for pest or weed control at 15.625 g/ha / pest or weed control at 250 g/ha: read-out: Foxtail, Giant damage rating (100=total damage to plant; 0=no damage to plant); for pest or weed control at 62.5 g/ha: 62.5 g ai/ha, 100=total damage to plant, 0=no damage to plant, read-out: Foxtail, Giant damage rating; for pest or weed control at 250 g/ha: 250 g ai/ha
How it was run: as §1

[4] = system: ivy-leaved morning glory (Ipomoea hederacea); experiment: Test G Pre-Emergence Protocol; details: Ipomoea, pre-emergence, 312 h, evaluated after 13 days; for pest or weed control at 15.625 g/ha: 15.625 g ai/ha; for pest or weed control at 15.625 g/ha / pest or weed control at 250 g/ha: read-out: Morningglory, Ivy-leaved damage rating (100=total damage to plant; 0=no damage to plant); for pest or weed control at 62.5 g/ha: 62.5 g ai/ha, 100=total damage to plant, 0=no damage to plant, read-out: Morningglory, Ivy-leaved damage rating; for pest or weed control at 250 g/ha: 250 g ai/ha
How it was run: as §1

[5] = system: redroot pigweed (Amaranthus retroflexus); experiment: Test G Pre-Emergence Protocol; details: Amaranthus retroflexus, pre-emergence, 312 h, evaluated after 13 days; for pest or weed control at 15.625 g/ha: 15.625 g ai/ha; for pest or weed control at 15.625 g/ha / pest or weed control at 250 g/ha: read-out: Pigweed, Redroot damage rating (100=total damage to plant; 0=no damage to plant); for pest or weed control at 62.5 g/ha: 62.5 g ai/ha, 100=total damage to plant, 0=no damage to plant, read-out: Pigweed, Redroot damage rating; for pest or weed control at 250 g/ha: 250 g ai/ha
How it was run: as §1

[6] = system: velvetleaf (Abutilon theophrasti); experiment: Test G Pre-Emergence Protocol; details: Abutilon theophrasti, pre-emergence, 312 h, evaluated after 13 days; for pest or weed control at 15.625 g/ha: 15.625 g ai/ha; for pest or weed control at 15.625 g/ha / pest or weed control at 250 g/ha: read-out: Velvetleaf damage rating (100=total damage to plant; 0=no damage to plant); for pest or weed control at 62.5 g/ha: 62.5 g ai/ha, 100=total damage to plant, 0=no damage to plant, read-out: Velvetleaf damage rating; for pest or weed control at 250 g/ha: 250 g ai/ha
How it was run: as §1

[7] = system: barnyardgrass (Echinochloa crus-galli); experiment: Test G Post-Emergence Protocol; details: Echinochloa crus-galli, post-emergence, 312 h, read-out: Barnyardgrass damage rating; for pest or weed control at 15.625 g/ha: 15.625 g ai/ha, evaluated after 13 days (100=total damage to plant; 0=no damage to plant); for pest or weed control at 62.5 g/ha: 62.5 g ai/ha; for pest or weed control at 62.5 g/ha / pest or weed control at 250 g/ha: evaluated after 13 days, 100=total damage to plant, 0=no damage to plant; for pest or weed control at 250 g/ha: 250 g ai/ha
How it was run: (§2)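 Foliar application was made 8 days after sowing, using an aqueous spray of the active in acetone/water (50:50) with 0.5% Tween 20, at doses of 15.625, 62.5 or 250 g/ha. Injury was assessed 13 days later, where 100 meant the plant was fully damaged.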

[8] = system: corn (Zea mays); experiment: Test G Post-Emergence Protocol; details: Zea mays, post-emergence, 312 h, read-out: Corn damage rating; for plant injury at 15.625 g/ha: 15.625 g ai/ha, evaluated after 13 days (100=total damage to plant; 0=no damage to plant); for plant injury at 62.5 g/ha: 62.5 g ai/ha; for plant injury at 62.5 g/ha / plant injury at 250 g/ha: evaluated after 13 days, 100=total damage to plant, 0=no damage to plant; for plant injury at 250 g/ha: 250 g ai/ha
How it was run: as §2

[9] = system: giant foxtail (Setaria faberi); experiment: Test G Post-Emergence Protocol; details: Setaria faberi, post-emergence, 312 h, read-out: Foxtail, Giant damage rating; for pest or weed control at 15.625 g/ha: 15.625 g ai/ha, evaluated after 13 days (100=total damage to plant; 0=no damage to plant); for pest or weed control at 62.5 g/ha: 62.5 g ai/ha; for pest or weed control at 62.5 g/ha / pest or weed control at 250 g/ha: evaluated after 13 days, 100=total damage to plant, 0=no damage to plant; for pest or weed control at 250 g/ha: 250 g ai/ha
How it was run: as §2

[10] = system: ivy-leaved morning glory (Ipomoea hederacea); experiment: Test G Post-Emergence Protocol; details: Ipomoea, post-emergence, 312 h, read-out: Morningglory, Ivy-leaved damage rating; for pest or weed control at 15.625 g/ha: 15.625 g ai/ha, evaluated after 13 days (100=total damage to plant; 0=no damage to plant); for pest or weed control at 62.5 g/ha: 62.5 g ai/ha; for pest or weed control at 62.5 g/ha / pest or weed control at 250 g/ha: evaluated after 13 days, 100=total damage to plant, 0=no damage to plant; for pest or weed control at 250 g/ha: 250 g ai/ha
How it was run: as §2

[11] = system: redroot pigweed (Amaranthus retroflexus); experiment: Test G Post-Emergence Protocol; details: Amaranthus retroflexus, post-emergence, 312 h, read-out: Pigweed, Redroot damage rating; for pest or weed control at 15.625 g/ha: 15.625 g ai/ha, evaluated after 13 days (100=total damage to plant; 0=no damage to plant); for pest or weed control at 62.5 g/ha: 62.5 g ai/ha; for pest or weed control at 62.5 g/ha / pest or weed control at 250 g/ha: evaluated after 13 days, 100=total damage to plant, 0=no damage to plant; for pest or weed control at 250 g/ha: 250 g ai/ha
How it was run: as §2

[12] = system: velvetleaf (Abutilon theophrasti); experiment: Test G Post-Emergence Protocol; details: Abutilon theophrasti, post-emergence, 312 h, read-out: Velvetleaf damage rating; for pest or weed control at 15.625 g/ha: 15.625 g ai/ha, evaluated after 13 days (100=total damage to plant; 0=no damage to plant); for pest or weed control at 62.5 g/ha: 62.5 g ai/ha; for pest or weed control at 62.5 g/ha / pest or weed control at 250 g/ha: evaluated after 13 days, 100=total damage to plant, 0=no damage to plant; for pest or weed control at 250 g/ha: 250 g ai/ha
How it was run: as §2

| SMILES | pest or weed control at 15.625 g/ha [1] | pest or weed control at 62.5 g/ha [1] | pest or weed control at 250 g/ha [1] | plant injury at 15.625 g/ha [2] | plant injury at 62.5 g/ha [2] | plant injury at 250 g/ha [2] | pest or weed control at 15.625 g/ha [3] | pest or weed control at 62.5 g/ha [3] | pest or weed control at 250 g/ha [3] | pest or weed control at 15.625 g/ha [4] | pest or weed control at 62.5 g/ha [4] | pest or weed control at 250 g/ha [4] | pest or weed control at 15.625 g/ha [5] | pest or weed control at 62.5 g/ha [5] | pest or weed control at 250 g/ha [5] | pest or weed control at 15.625 g/ha [6] | pest or weed control at 62.5 g/ha [6] | pest or weed control at 250 g/ha [6] | pest or weed control at 15.625 g/ha [7] | pest or weed control at 62.5 g/ha [7] | further results |
| --- | --- | --- | --- | --- | --- | --- | --- | --- | --- | --- | --- | --- | --- | --- | --- | --- | --- | --- | --- | --- | --- |
| Cc1cc(C2CN(C)C(=O)C2C(=O)Nc2cccc(F)c2F)cc(Cl)c1F (stereo not drawn) [Compound 1708] | 20% | 30% | 60% | 0% | 0% | 0% | 60% | 80% | 90% | 0% | 0% | 20% | 0% | 0% | 0% | 0% | 0% | 0% | 40% | 50% | pest or weed control at 250 g/ha [7]: 80%; plant injury at 15.625 g/ha [8]: 10%; plant injury at 62.5 g/ha [8]: 30%; plant injury at 250 g/ha [8]: 70%; pest or weed control at 15.625 g/ha [9]: 40%; pest or weed control at 62.5 g/ha [9]: 60%; pest or weed control at 250 g/ha [9]: 60%; pest or weed control at 15.625 g/ha [10]: 20%; pest or weed control at 62.5 g/ha [10]: 20%; pest or weed control at 250 g/ha [10]: 20%; pest or weed control at 15.625 g/ha [11]: 0%; pest or weed control at 62.5 g/ha [11]: 0%; pest or weed control at 250 g/ha [11]: 0%; pest or weed control at 15.625 g/ha [12]: 0%; pest or weed control at 62.5 g/ha [12]: 0%; pest or weed control at 250 g/ha [12]: 0% |
| CN1CCCC(NC(=O)[C@H]2C(=O)N(C)C[C@@H]2c2ccc(C(F)(F)F)cc2)C1=O (mixture of isomers) [Compound 1674] | 0% | 0% | 0% | 0% | 0% | 0% | 0% | 0% | 0% | 0% | 0% | 0% | 0% | 0% | 0% | 0% | 0% | 0% | 0% | 0% | pest or weed control at 250 g/ha [7]: 0%; plant injury at 15.625 g/ha [8]: 0%; plant injury at 62.5 g/ha [8]: 0%; plant injury at 250 g/ha [8]: 0%; pest or weed control at 15.625 g/ha [9]: 0%; pest or weed control at 62.5 g/ha [9]: 0%; pest or weed control at 250 g/ha [9]: 20%; pest or weed control at 15.625 g/ha [10]: 0%; pest or weed control at 62.5 g/ha [10]: 0%; pest or weed control at 250 g/ha [10]: 0%; pest or weed control at 15.625 g/ha [11]: 0%; pest or weed control at 62.5 g/ha [11]: 0%; pest or weed control at 250 g/ha [11]: 0%; pest or weed control at 15.625 g/ha [12]: 0%; pest or weed control at 62.5 g/ha [12]: 0%; pest or weed control at 250 g/ha [12]: 0% |
